Common to all, as to format: biochemical
The target of one assay is TYK2 (Homo sapiens (Human), UniProt P29597). Description: JAK Caliper Enzyme Assay at 1 mM ATP, TYK2. Here is the method: (§1) Compounds of the invention were evaluated by in vitro methods to determine their respective ability to inhibit the JAK kinases (TYK2, JAK1, JAK2, JAK3).
(§2) The human JAK inhibitory activity was determined by using a microfluidic assay to monitor phosphorylation of a synthetic peptide by the recombinant human kinase domain of each of the four members of the JAK family, JAK1, JAK2, JAK3 and TYK2. […] Each assay condition was optimized for enzyme concentration and room temperature incubation time to obtain a conversion rate of 20% to 30% phosphorylated peptide product. Reactions were terminated by the addition of stop buffer containing EDTA. Utilizing the LabChip 3000 mobility shift technology (Caliper Life Science), each assay reaction was sampled to determine the level of phosphorylation. This technology is separation-based, allowing direct detection of fluorescently labeled substrates and products. Separations are controlled by a combination of vacuum pressure and electric field strength optimized for each peptide substrate.
(§3) JAK Caliper Enzyme Assay at 1mM ATP
(§4) Compounds were added to a 384-well plate.
(§5) The data was collected using the HTS Well Analyzer software from Caliper Life Sciences. The data output for data analysis is the percent product converted calculated on peak height (Equation 1). % product converted=100*((product)/(product+substrate)) Equation 1: […]
(§6) The percent effect at each compound concentration was calculated based on the positive and negative control well contained within each assay plate (Equation 2). […] The negative control wells contained DMSO alone (at the same concentration as the compound wells) that was used to set the baseline activity in the assay (i.e., uninhibited JAK1, JAK2, JAK3 or TYK2). % effect=100*([…](positive control-negative control)) Equation 2: […]
(§7) The percent effect was plotted against the compound concentration compound.

In a further assay the target is JAK2 (Homo sapiens (Human), UniProt O60674). Put plainly: JAK Caliper Enzyme Assay at 1 mM ATP, JAK2. On the procedure:
as §1, §2, §3, §4, §5, §6, §7

The next assay addresses JAK3 (Homo sapiens (Human), UniProt P52333). Description: JAK Caliper Enzyme Assay at 1 mM ATP, JAK3. Here is the method: as §1, §2, §3, §4, §5, §6, §7
Another assay concerns the target JAK1 (Homo sapiens (Human), UniProt P23458). Description: JAK Caliper Enzyme Assay at 1 mM ATP, JAK1. Here is the method:
as §1, §2, §3, §4, §5, §6, §7

Read-outs that look alike come from different tables or passages of the source. Bounds are passed on as bounds.

Chain of JAK3 (P52333 822-1111): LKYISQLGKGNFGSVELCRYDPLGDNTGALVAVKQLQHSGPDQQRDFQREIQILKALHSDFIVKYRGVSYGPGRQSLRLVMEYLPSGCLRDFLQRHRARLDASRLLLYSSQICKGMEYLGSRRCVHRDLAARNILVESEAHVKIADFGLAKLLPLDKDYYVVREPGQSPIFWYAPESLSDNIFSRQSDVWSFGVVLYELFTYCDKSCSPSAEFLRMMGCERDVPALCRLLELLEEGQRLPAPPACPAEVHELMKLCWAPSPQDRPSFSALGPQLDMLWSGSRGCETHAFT
Chain of JAK1 (P23458 875-1153): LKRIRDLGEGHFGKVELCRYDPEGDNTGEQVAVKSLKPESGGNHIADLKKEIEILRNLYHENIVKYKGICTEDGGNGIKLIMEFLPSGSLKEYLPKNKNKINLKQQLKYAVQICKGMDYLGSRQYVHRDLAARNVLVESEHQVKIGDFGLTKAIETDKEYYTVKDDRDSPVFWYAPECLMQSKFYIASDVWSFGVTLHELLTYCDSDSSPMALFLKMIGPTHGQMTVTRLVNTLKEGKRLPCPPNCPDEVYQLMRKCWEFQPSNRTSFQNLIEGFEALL
Chain of TYK2 (P29597 897-1176): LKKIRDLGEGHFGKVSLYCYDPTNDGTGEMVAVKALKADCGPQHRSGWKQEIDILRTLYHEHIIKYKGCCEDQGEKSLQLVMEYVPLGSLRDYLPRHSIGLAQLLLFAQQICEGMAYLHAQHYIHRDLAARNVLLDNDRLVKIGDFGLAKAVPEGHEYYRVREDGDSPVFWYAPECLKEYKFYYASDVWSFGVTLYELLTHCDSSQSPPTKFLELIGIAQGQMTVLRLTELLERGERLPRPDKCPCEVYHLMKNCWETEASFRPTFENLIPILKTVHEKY
Chain of JAK2 (O60674 849-1124): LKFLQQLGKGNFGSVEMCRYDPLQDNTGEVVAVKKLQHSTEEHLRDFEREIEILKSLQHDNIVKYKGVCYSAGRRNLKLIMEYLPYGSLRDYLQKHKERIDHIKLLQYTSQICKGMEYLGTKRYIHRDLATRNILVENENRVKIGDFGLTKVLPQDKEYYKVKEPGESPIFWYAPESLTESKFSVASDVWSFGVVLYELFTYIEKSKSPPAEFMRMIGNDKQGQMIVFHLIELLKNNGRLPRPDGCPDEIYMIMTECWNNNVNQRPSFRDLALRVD

Turning to “2-[3-{4-[7-(1-methyl-1H-pyrazol-4-yl)-1,6-naphthyridin-5-yl]-1H-pyrazol-1-yl}-1-(2,2,2-trifluoroethyl)azetidin-3- [Example 5]”, the IC50 on TYK2 was 1110 nM; on JAK2, 2950 nM; on JAK3, more than 10000 nM; at JAK1, 2820 nM.

As for `N#CCC1(n2cc(-c3nc(-c4cn[nH]c4)cc4ncccc34)cn2)CN(CC(F)(F)F)C1` [Example 1, [3-{4-[7-(1H-pyrazol-4-yl)-1,6-naphthyridin-5-yl]-1H-pyrazol-1-yl}-1-(2,2,2-trifluoroethyl)azetidin-3-yl]acetonitrile], the IC50 at TYK2 turned out to be 15 nM; at JAK2, 39 nM; at JAK3, 7140 nM; at JAK1, 35 nM.

With `N#CC[C@H]1C[C@](CC#N)(n2cc(-c3nc(-c4cn[nH]c4)cc4ncccc34)cn2)C1` [Example 2, 2,2′-(trans-1-{4-[7-(1H-pyrazol-4-yl)-1,6-naphthyridin-5-yl]-1H-pyrazol-1-yl}cyclobutane-1,3-diyl)diacetonitrile], the IC50 on TYK2 was 50 nM; at JAK2, 127 nM; on JAK3, more than 10000 nM; on JAK1, 86 nM.

`N#CCC1CC(CC#N)(n2cc(-c3nc(-c4cn[nH]c4)cc4ncccc34)cn2)C1` (stereo not drawn) [Example 3, 2,2′-(cis-1-{4-[7-(1H-pyrazol-4-yl)-1,6-naphthyridin-5-yl]-1H-pyrazol-1-yl}cyclobutane-1,3-diyl)diacetonitrile]: the IC50 at TYK2 was found to be 14 nM; on JAK2, 26 nM; on JAK3, 5980 nM; at JAK1, 37 nM.

Take `Cn1cc(-c2cc3ncccc3c(-c3cnn(C4(CC#N)CN(CC(F)(F)F)C4)c3)n2)cn1` [Example 4, [3-{4-[7-(1-methyl-1H-pyrazol-4-yl)-1,6-naphthyridin-5-yl]-1H-pyrazol-1-yl}-1-(2,2,2-trifluoroethyl)azetidin-3-yl]acetonitrile]: the 50% inhibitory concentration (IC50) on TYK2 is 17 nM; on JAK2, 26 nM; at JAK3, 5170 nM; at JAK1 it was 97 nM.

For `CO[C@H]1C[C@@](CC#N)(n2cc(-c3nc(-c4cnn(CCO)c4)cc4ncccc34)cn2)C1` [Example 8, [cis-1-(4-{7-[1-(2-hydroxyethyl)-1H-pyrazol-4-yl]-1,6-naphthyridin-5-yl}-1H-pyrazol-1-yl)-3-methoxycyclobutyl]acetonitrile], the IC50 on TYK2 was 130 nM; on JAK2, 126 nM; at JAK3 it was more than 10000 nM; at JAK1, 661 nM.

As to `CO[C@H]1C[C@](CC#N)(n2cc(-c3nc(-c4cnn(CCO)c4)cc4ncccc34)cn2)C1` [Example 9, [trans-1-(4-{7-[1-(2-hydroxyethyl)-1H-pyrazol-4-yl]-1,6-naphthyridin-5-yl}-1H-pyrazol-1-yl)-3-methoxycyclobutyl]acetonitrile], the IC50 is 77 nM at TYK2, 107 nM on JAK2, more than 10000 nM on JAK3 and 520 nM on JAK1.

As to `N#CCC1(n2cc(-c3nc(-c4cnn(C5CCOCC5)c4)cc4ncccc34)cn2)CN(CC(F)(F)F)C1` [Example 11, [3-(4-{7-[1-(tetrahydro-2H-pyran-4-yl)-1H-pyrazol-4-yl]-1,6-naphthyridin-5-yl}-1H-pyrazol-1-yl)-1-(2,2,2-trifluoroethyl)azetidin-3-yl]acetonitrile], the IC50 at TYK2 was 21 nM; on JAK2 it was 14 nM; on JAK3, 2620 nM; at JAK1, 70 nM.

Take `CO[C@H]1C[C@@](CC#N)(n2cc(-c3nc(-c4cc(CO)n[nH]4)cc4ncccc34)cn2)C1` [Example 12, [cis-1-(4-{7-[3-(hydroxymethyl)-1H-pyrazol-5-yl]-1,6-naphthyridin-5-yl}-1H-pyrazol-1-yl)-3-methoxycyclobutyl]acetonitrile]: the 50% inhibitory concentration (IC50) was 63 nM at TYK2, 101 nM on JAK2, more than 10000 nM at JAK3 and 407 nM on JAK1.

Regarding `CO[C@H]1C[C@](CC#N)(n2cc(-c3nc(-c4cc(CO)n[nH]4)cc4ncccc34)cn2)C1` [Example 13, [trans-1-(4-{7-[3-(hydroxymethyl)-1H-pyrazol-5-yl]-1,6-naphthyridin-5-yl}-1H-pyrazol-1-yl)-3-methoxycyclobutyl]acetonitrile], the concentration for half-maximal inhibition (IC50) was 42 nM on TYK2, 82 nM on JAK2, more than 10000 nM at JAK3 and 266 nM at JAK1.

`N#CCC1(n2ccc(-c3nc(Cl)cc4ncccc34)n2)CN(CC(F)(F)F)C1` [Example 14, {3-[3-(7-chloro-1,6-naphthyridin-5-yl)-1H-pyrazol-1-yl]-1-(2,2,2-trifluoroethyl)azetidin-3-yl}acetonitrile]: the IC50 at TYK2 was 1470 nM; at JAK2, more than 10000 nM; at JAK3, more than 10000 nM; on JAK1 it was 8960 nM.

For the compound `N#CCC1(n2ccc(-c3nccc4ncccc34)n2)CN(CC(F)(F)F)C1` [Example 15, {3-[3-(1,6-naphthyridin-5-yl)-1H-pyrazol-1-yl]-1-(2,2,2-trifluoroethyl)azetidin-3-yl}acetonitrile], the IC50 is 7680 nM at TYK2, more than 10000 nM on JAK2, more than 10000 nM on JAK3 and more than 10000 nM at JAK1.

Regarding `N#CCC1(n2ccc(-c3nc(-c4cc[nH]n4)cc4ncccc34)n2)CN(CC(F)(F)F)C1` [Example 16, [3-{3-[7-(1H-pyrazol-3-yl)-1,6-naphthyridin-5-yl]-1H-pyrazol-1-yl}-1-(2,2,2-trifluoroethyl)azetidin-3-yl]acetonitrile], the IC50 on TYK2 is 23 nM; at JAK2 it was 431 nM; on JAK3 it was more than 10000 nM; on JAK1, 475 nM.

Regarding `CS(=O)(=O)N1CC(CC#N)(n2ccc(-c3nc(-c4ccn[nH]4)cc4ncccc34)n2)C1` [Example 17, [1-(methylsulfonyl)-3-{3-[7-(1H-pyrazol-5-yl)-1,6-naphthyridin-5-yl]-1H-pyrazol-1-yl}azetidin-3-yl]acetonitrile], the half-inhibitory concentration (IC50) was 44 nM on TYK2, 464 nM at JAK2, more than 10000 nM on JAK3 and 1020 nM on JAK1.

In the case of `N#CCC1(n2ccc(-c3nc(-c4ccn[nH]4)cc4ncccc34)n2)CN(S(=O)(=O)C2COC2)C1` [Example 19, [1-(oxetan-3-ylsulfonyl)-3-{3-[7-(1H-pyrazol-5-yl)-1,6-naphthyridin-5-yl]-1H-pyrazol-1-yl}azetidin-3-yl]acetonitrile], the IC50 on TYK2 is 26 nM; on JAK2, 188 nM; at JAK3, 9910 nM; on JAK1, 175 nM.

Consider `N#CC[C@]1(n2ccc(-c3nc(-c4ccn[nH]4)cc4ncccc34)n2)C[C@H](C#N)C1` [Example 20, trans-3-(cyanomethyl)-3-{3-[7-(1H-pyrazol-5-yl)-1,6-naphthyridin-5-yl]-1H-pyrazol-1-yl}cyclobutanecarbonitrile], for which the IC50 is 25 nM on TYK2, 240 nM on JAK2, more than 10000 nM on JAK3 and 381 nM on JAK1.

As for `Cn1ncc(-c2cc(-c3cnn([C@]4(CC#N)C[C@@H](C#N)C4)n3)c3cccnc3c2)c1C(N)=O` [Example 335, 4-(5-{2-[trans-3-cyano-1-(cyanomethyl)cyclobutyl]-2H-1,2,3-triazol-4-yl}quinolin-7-yl)-1-methyl-1H-pyrazole-5-carboxamide], the IC50 on TYK2 was 5270 nM; on JAK2, more than 10000 nM.

Consider `N#CC[C@]1(n2ncc(-c3cc(-c4cncc(N)n4)cc4ncccc34)n2)C[C@H](C#N)C1` [Example 397, trans-3-{4-[7-(6-aminopyrazin-2-yl)quinolin-5-yl]-2H-1,2,3-triazol-2-yl}-3-(cyanomethyl)cyclobutanecarbonitrile], for which the IC50 at JAK2 (JAK Caliper enzyme assay) was 8950 nM; on JAK3 (JAK Caliper enzyme assay) it was more than 10000 nM; on JAK1 (JAK Caliper enzyme assay) it was more than 10000 nM.

On to `COc1nc(-c2cc(-c3cnn([C@]4(CC#N)C[C@H](C#N)C4)c3)n3ccnc3c2)ccc1N` [Example 471, cis-3-{4-[7-(5-amino-6-methoxypyridin-2-yl)imidazo[1,2-a]pyridin-5-yl]-1H-pyrazol-1-yl}-3-(cyanomethyl)cyclobutanecarbonitrile], for which the IC50 on TYK2 (JAK Caliper enzyme assay) was 33 nM; at JAK3 (JAK Caliper enzyme assay), more than 10000 nM; on JAK1 (JAK Caliper enzyme assay), 631 nM.

Consider `Cn1cc(-c2cc(-c3ccn(C4(CC#N)CN(CC(F)(F)F)C4)n3)n3ccnc3c2)cn1` [Example 472, [3-{3-[7-(1-methyl-1H-pyrazol-4-yl)imidazo[1,2-a]pyridin-5-yl]-1H-pyrazol-1-yl}-1-(2,2,2-trifluoroethyl)azetidin-3-yl]acetonitrile], for which the IC50 was 5670 nM on TYK2 (JAK Caliper enzyme assay), more than 10000 nM on JAK3 (JAK Caliper enzyme assay) and more than 10000 nM at JAK1 (JAK Caliper enzyme assay).

For the origin of these results see patent US11254668B2, “Pyrazolo[1,5-A]pyrazin-4-yl and related derivatives” (Pfizer Inc., priority 2017, dated 2022).
